Reference: US5135857A, “Process for the preparation of de-mannosyl teicoplanin derivatives” (Gruppo Lepetit S.p.A., priority 1987, dated 1992)

Key:
Format in all cases: cell-based
[1] = test system: Staph. epidermidis L147 ATCC 12228 (coagulase negative); assay: MIC broth dilution test, Staph. epidermidis; conditions: Isosensitest broth, 24 h
Procedure: (§1) Culture media and growth conditions for MIC (minimal inhibitory concentration) determinations were as follows: Isosensitest broth (Oxoid), 24 h, for staphylococci, Strep. faecalis and Gram-negative bacteria ( Escherichia coli); Todd-Hewitt broth (Difco), 24 h for other streptococcal species; GC base broth (Difco)+1% Isovitalex (BBL), 48 h, CO2 -enriched atmosphere for Neisseria gonorrhoeae; Brain Heart broth (Difco)+1% Supplement C (Difco), 48 h for Haemophilus influenzae; Inocula were of about 10^4 -10^5 colony-forming units/ml for broth dilution MICs.

[2] = test system: Strep. pyogenes L49 C203; assay: MIC broth dilution test, Strep. pyogenes; conditions: Todd-Hewitt broth, 24 h
Procedure: as §1

[3] = test system: Strip. pneumoniae L44 UC41; assay: MIC broth dilution test, Strep. pneumoniae; conditions: Todd-Hewitt broth, 24 h
Procedure: as §1

[4] = test system: Strep. faecalis L149 ATCC 7080; assay: MIC broth dilution test, Strep. faecalis; conditions: Isosensitest broth, 24 h
Procedure: as §1

[5] = test system: Strep. mitis L796 (clinical isolate); assay: MIC broth dilution test, Strep. mitis; conditions: Todd-Hewitt broth, 24 h
Procedure: as §1

[6] = test system: Neisseria gonorrhoeae L997 ISM68/126; assay: MIC broth dilution test, Neisseria gonorrhoeae; conditions: GC base broth + 1% Isovitalex, 48 h, CO2-enriched atmosphere
Procedure: as §1

[7] = test system: Haemophilus influenzae L970 type b ATCC 19418; assay: MIC broth dilution test, Haemophilus influenzae; conditions: Brain Heart broth + 1% Supplement C, 48 h
Procedure: as §1

[8] = test system: Staph. haemolyticus L602 (clinical isolate); assay: MIC broth dilution test, Staph. haemolyticus; conditions: Isosensitest broth, 24 h
Procedure: as §1

| SMILES | M.I.C. [1] [microgram/ml] | M.I.C. [2] [microgram/ml] | M.I.C. [3] [microgram/ml] | M.I.C. [4] [microgram/ml] | M.I.C. [5] [microgram/ml] | M.I.C. [6] [microgram/ml] | M.I.C. [7] [microgram/ml] | M.I.C. [8] [microgram/ml] |
| --- | --- | --- | --- | --- | --- | --- | --- | --- |
| CC(=O)N[C@H]1[C@H](OC2c3ccc(c(Cl)c3)Oc3cc4cc(c3O[C@@H]3O[C@H](CO)[C@@H](O)[C@H](O)[C@H]3NC(=O)CCCCCCC(C)C)Oc3ccc(cc3Cl)CC3NC(=O)C(N)c5ccc(O)c(c5)Oc5cc(O)cc(c5)C(NC3=O)C(=O)NC4C(=O)NC3C(=O)NC2C(=O)NC(C(=O)O)c2cc(O)cc(O)c2-c2cc3ccc2O)O[C@H](CO)[C@@H](O)[C@@H]1O (stereo partly shown) [DM-TA2-2, de-mannosyl teicoplanin complex component 2] | 0.063 | 0.063 | 0.063 | 0.063 | 0.063 | 32 | 64 | 0.5 |
| CCCCCCCCCC(=O)N[C@H]1[C@H](Oc2c3cc4cc2Oc2ccc(cc2Cl)C(O[C@@H]2O[C@H](CO)[C@@H](O)[C@H](O)[C@H]2NC(C)=O)C2NC(=O)C(NC(=O)C4NC(=O)C4NC(=O)C(Cc5ccc(c(Cl)c5)O3)NC(=O)C(N)c3ccc(O)c(c3)Oc3cc(O)cc4c3)c3ccc(O)c(c3)-c3c(O)cc(O)cc3C(C(=O)O)NC2=O)O[C@H](CO)[C@@H](O)[C@@H]1O (stereo partly shown) [DM-TA2-3, de-mannosyl teicoplanin complex component 3] | 0.063 | 0.063 | 0.063 | 0.063 | 0.063 | 32 | 64 | 0.5 |
| CCC(C)CCCCCCC(=O)N[C@H]1[C@H](Oc2c3cc4cc2Oc2ccc(cc2Cl)C(O[C@@H]2O[C@H](CO)[C@@H](O)[C@H](O)[C@H]2NC(C)=O)C2NC(=O)C(NC(=O)C4NC(=O)C4NC(=O)C(Cc5ccc(c(Cl)c5)O3)NC(=O)C(N)c3ccc(O)c(c3)Oc3cc(O)cc4c3)c3ccc(O)c(c3)-c3c(O)cc(O)cc3C(C(=O)O)NC2=O)O[C@H](CO)[C@@H](O)[C@@H]1O (stereo partly shown) [DM-TA2-4, de-mannosyl teicoplanin complex component 4] | 0.063 | 0.063 | 0.063 | 0.063 | – | 32 | 64 | 0.5 |
| CC(=O)N[C@H]1[C@H](OC2c3ccc(c(Cl)c3)Oc3cc4cc(c3O[C@@H]3O[C@H](CO)[C@@H](O)[C@H](O)[C@H]3NC(=O)CCCCCCCC(C)C)Oc3ccc(cc3Cl)CC3NC(=O)C(N)c5ccc(O)c(c5)Oc5cc(O)cc(c5)C(NC3=O)C(=O)NC4C(=O)NC3C(=O)NC2C(=O)NC(C(=O)O)c2cc(O)cc(O)c2-c2cc3ccc2O)O[C@H](CO)[C@@H](O)[C@@H]1O (stereo partly shown) [DM-TA2-5, de-mannosyl teicoplanin complex component 5] | 0.063 | 0.063 | 0.063 | 0.063 | 0.063 | 32 | 32 | 0.25 |
